These results are taken from patent US9109001B2, “3′,5′-cyclic phosphoramidate prodrugs for HCV infection” (priority 2012, dated 2015).

Like-named read-outs stand apart in the source and are kept apart here.

In data set [1] the test system is fresh human hepatocytes. Description: Release of active metabolite in fresh human hepatocytes. It is filed as in vitro ADME. The settings on record: 10 μM. The protocol:
Assay for the Release of Active Metabolite in Primary Hepatocytes: Plates of fresh human and mouse hepatocytes were obtained on ice. The medium was removed and replaced with hepatocyte culture medium (William's E supplemented with penicillin-streptomycin, 1% L-glutamine, 1% insulin-transferrin-selenium and 0.1 μM Dexamethasone (Invitrogen) or with Invitro GRO HI medium complemented with Torpedo antibiotics (Celsis)). Cells were left overnight in an incubator at 37° C. to acclimatize to culture and the medium.
Hepatocyte incubations were conducted at a final volume of 0.5 mL hepatocyte culture medium/well (0.8 million cells/well for human and 0.5 million cells/well for mouse; 12 well plate no overlay, collagen coat). Culture medium from overnight incubation of cells was removed and replaced with fresh medium, pre-warmed to 37° C., containing 10 μM of test compound from a stock solution in DMSO (final DMSO concentration was 0.1%). At each specific time point, incubation medium was removed and cell monolayers were carefully washed two times with ice-cold PBS. Following the last wash, all PBS was carefully removed and 1.0 mL of extraction solution (ice-cold 70% methanol/30% water) added. Cells were scraped off and suspended in the extraction solution, transferred to 2 mL polypropylene microfuge tubes and intracellular contents extracted overnight at −20° C.
After the overnight treatment the cellular extracts were prepared by centrifugation at 16,000×g for 10 min to remove cellular debris. The remaining sample was then dried using a refrigerated centrivap concentrator. Dry extracts were reconstituted in 1000 μL of HPLC-grade water and centrifuged at 16,000×g for 10 min. Aliquots (100 μL each) of the supernatant were transferred into a 96 well plate and internal standard (4 ng/mL final concentration) was added as the internal standard (IS) for LC-MS/MS analysis.
The incubation time points were 6, 24 and 48 hours for human hepatocytes and 1, 4, 8, 12 and 24 hours for mouse hepatocytes.

Data set [2] is described as follows: Stability in human liver microsomes. Type of data set: in vitro ADME. Conditions: 10 μM, 1.0 mg/mL protein, NADPH, 60 min; percent unchanged. How it is done: Stability in Liver and Intestinal Subcellular Fractions: Stability of test compounds were determined in subcellular fractions (microsomes and S9) of human liver and intestine in duplicate for each matrix. Pooled liver and intestinal microsomal, intestinal and liver S9 proteins (1.0 mg/mL), suspended in incubation buffer (100 mM potassium phosphate, pH 7.4, 5 mM MgCl2, and 0.1 mM EDTA), were preincubated for 5 min at 37° C. with 10 μM of a test compound from a 10 mM stock solution in DMSO (final DMSO concentration was 0.1%); the reaction was initiated by the addition of NADPH (3 mM final concentration). At specific times (0 and 60 min), 0.1 mL samples were taken and the reaction terminated by the addition of 4 volumes of stop solution (acetonitrile with 500 ng/mL carbutamide as an internal standard). The samples were vortexed for 30 sec and then centrifuged at 16,000 g for 10 min. 100 μL of supernatants were transferred to 96 deep-well plates preloaded with 100 μL distilled water and analyzed after mixing by LC-MS/MS. The MS peak area ratio of the test compound versus the internal standard was calculated and percent unchanged test compound over 60 minutes was calculated using this ratio.
On the technique in general: Liver microsomes are vesicles of endoplasmic reticulum, rich in cytochrome P450 enzymes.

Data set [3] is described as follows: Cytotoxicity evaluation (CellTiter-Blue Cell Viability Assay). It is filed as cell-based, human. Conditions: human, Zluc cells, read-out: HCV Replicon CC50. Background: Resazurin is reduced to fluorescent resorufin, in cell work by metabolically active cells.
Data set [4] can be described thus: Stability in simulated intestinal fluid. Type of data set: in vitro ADME. The settings on record: 100 μM, 2 hours at 37° C.; percent of peak area at time zero. The protocol: Stability in Simulated Gastric and Intestinal Fluids: Simulated gastric and intestinal fluids containing pepsin and pancreatin respectively were prepared according to the U.S. Pharmacopoeia USP291 procedure (www.pharmacopeia.cn/v29240/usp29nf24s0_ris1s126.html). Test compound (final concentration 100 μM) was incubated in duplicate in the appropriate fluid for 2 hours at 37° C. The samples were quenched with 200 μl cold acetonitrile, vortexed for 30 seconds and then centrifuged at 16,100 g for 10 min. The supernatants were analyzed by HPLC on a C-18 column with UV detection at 252 nm. The time 0 samples were prepared by adding SGF or SIF fluid to the quenching solvent followed by the test compound. Stability of the compound was determined by peak area the test compound after incubation and calculated as percent of the peak area observed at time zero.

Data set [5] is described as follows: Stability in fresh human whole blood. Type of data set: in vitro ADME. Conditions: 0.5 μM, percent unchanged test compound. How it is done: (§1) Stability in Fresh Whole Blood: Stability of test compounds were determined in fresh human whole blood with K2EDTA as the anticoagulant (stored refrigerated at 2-8° C. and used within 7 days of receipt). The experiment was conducted with three replicates for each time point. Whole blood, pre-incubated at 37° C. for 10-15 minutes, was fortified with a solution of test compound for a final concentration of 0.5 μM and mixed for 30 sec. At intervals (0, 0.5, 1 and 2 hr), three 50-μL aliquots were combined with 200 μL (each) of an ice-cold solution of the internal standard (carbutamide 500 ng/mL in acetonitrile). The samples were vortexed for 30 sec and then centrifuged at 16,100 g for 5 min. The supernatant was analyzed by LC-MS/MS. The MS peak area ratio of the test compound versus the internal standard was calculated and percent unchanged test compound was calculated for each time point using this ratio.

Data set [6] relates to HCV genotype 1b replicon. Description: HCV Replicon Assay. Type of data set: cell-based. The settings on record: Zluc (Huh-7-derived) cells, HCV genotype 1b replicon, luciferase reporter, 72 hours, read-out: HCV Replicon EC50. The protocol:
Huh-7-derived cell line (Zluc) that harbors an HCV genotype 1b replicon and a luciferase reporter gene was grown in Dulbecco's Modified Eagle Medium (DMEM) supplemented with 10% fetal bovine serum, 2 mM GlutaMAX, 1% MEM nonessential amino acids, 100 IU/mL penicillin, 100 μg/mL streptomycin, and 0.5 mg/mL Geneticin® (G418). For dose response testing the cells were seeded in 96-well plates at 7.5×10^3 cells per well in a volume of 50 μL, and incubated at 37° C./5% CO2. Drug solutions were made up freshly in Huh-7 media as 2× stocks. Ten additional 5-fold dilutions were prepared from these stocks in DMEM without G418. At least three hours after Zluc cells were seeded, drug treatment was initiated by adding 50 μL of drug dilutions to the plates in duplicate. Final concentrations of drug ranged from 100 μM to […]. Cells were then incubated at 37° C./5% CO2. Alternatively, compounds were tested at two concentrations (1 μM and 10 μM). […] For this, media was removed from the plates via gentle tapping. Fifty microliters of ONE-glo luciferase assay reagent was added to each well. The plates were shaken gently for 3 min at room temperature and luminescence was measured on a Victor^3 V 1420 multilabel counter (Perkin Elmer) with a 1 second read time using a 700 nm cut-off filter. The EC50 values were calculated from dose response curves from the resulting best-fit equations determined by Microsoft Excel and XLfit 4.1 software. When screening at two fixed concentrations, the results were expressed as % inhibition at 1 μM and 10 μM.
A general note: In antiviral work, replicon cells carry a viral genome segment that copies itself.

Data set [7] is described as follows: Stability in mouse blood. Conditions: on ice, percent unchanged test compound. Type of data set: in vitro ADME. How it is done:
as §1
The stability in mouse blood was determined on ice at 0, 0.5 and 1 hr as above.

The subject of data set [8] is Zluc cells. Briefly: Cytotoxicity evaluation (CellTiter-Blue Cell Viability Assay). Type of data set: cell-based, human. Conditions: read-out: HCV Replicon CC50.

Consider `CCOc1nc(N)nc2c1ncn2[C@@H]1O[C@@H]2COP(=O)(NCCC(=O)OC(C)C)O[C@H]2[C@@]1(C)F` (single isomer, unassigned) [Compound 2 Diastereomer 1], for which the “FHH TP AUC (pmol · hr/mill cells)” value in data set [1] is listed as “BLD^a”. In addition, in data set [2], the “Stability HLM (1 hr)” value came out at 6.7%. Besides, the CC50 – broadly, the concentration giving 50% cytotoxicity – in data set [3] is over 50000 nM. For the same compound, in data set [4], the “Stability SIF” value is recorded as 98%. Moreover, in data set [5], the “Stability WB_Human (37° C.; 2 hr)” value was 98%. Also, the concentration for a half-maximal effect (EC50) – broadly, the concentration that produces a half-maximal response – in data set [6] (Hepatitis C virus, 72 h) fell in the range of 250 to 1000 nM. For the same compound, the “Stability WB_Mouse (ice; 1 hr)” value in data set [7] is on record as 15%.

Turning to `CCOc1nc(N)nc2c1ncn2[C@@H]1O[C@@H]2COP(=O)(N[C@@H](C)C(=O)OCC(C)C)O[C@H]2[C@@]1(C)F` (single isomer, unassigned) [Compound 4 Diastereomer 1], in data set [1], the “FHH TP AUC (pmol · hr/mill cells)” value is 1759 pmol · hr/mill cells. Further, the CC50 in data set [3] is over 50000 nM. For the same compound, in data set [4], the “Stability SIF” value is 42%. Besides, the “Stability WB_Human (37° C.; 2 hr)” value in data set [5] was 77%. The EC50 in data set [6] (Hepatitis C virus, 72 h) is under 250 nM. In addition, the “Stability WB_Mouse (ice; 1 hr)” value in data set [7] is recorded as 1%.

Turning to `CCOc1nc(N)nc2c1ncn2[C@@H]1O[C@@H]2COP(=O)(NCCC(=O)OC(C)C)O[C@H]2[C@@]1(C)F` (single isomer, unassigned) [Compound 2 Diastereomer 2], the “FHH TP AUC (pmol · hr/mill cells)” value in data set [1] is given as 336 pmol · hr/mill cells. Also, the “Stability HLM (1 hr)” value in data set [2] is recorded as 5.7%. Moreover, the CC50 in data set [8] was over 50000 nM. Moreover, in data set [4], the “Stability SIF” value was 91%. Besides, the “Stability WB_Human (37° C.; 2 hr)” value in data set [5] was determined as 91%. Further, in data set [6], the concentration giving a half-maximal response (EC50) was 250 to 1000 nM. Besides, in data set [7], the “Stability WB_Mouse (ice; 1 hr)” value stood at 60%.

Consider `CCOc1nc(N)nc2c1ncn2[C@@H]1O[C@@H]2COP(=O)(N[C@@H](C)COC(=O)C(C)C)O[C@H]2[C@@]1(C)F` (single isomer, unassigned) [Compound 3 Diastereomer 2], for which, in data set [1], the “FHH TP AUC (pmol · hr/mill cells)” value came out at 1426 pmol · hr/mill cells. The “Stability HLM (1 hr)” value in data set [2] is recorded as 0.3%. Moreover, the CC50 in data set [3] was over 50000 nM. The “Stability SIF” value in data set [4] is on record as 39%. The “Stability WB_Human (37° C.; 2 hr)” value in data set [5] was found to be 1%. Besides, the concentration giving a half-maximal response (EC50) in data set [6] (Hepatitis C virus, 72 h) is under 250 nM. Also, in data set [7], the “Stability WB_Mouse (ice; 1 hr)” value was determined as 20%.

For `CCOc1nc(N)nc2c1ncn2[C@@H]1O[C@@H]2COP(=O)(N[C@@H](C)C(=O)OC(C)C)O[C@H]2[C@@]1(C)O` (single isomer, unassigned) [Compound 5 Diastereomer 2], in data set [1], the “FHH TP AUC (pmol · hr/mill cells)” value worked out at 2108 pmol · hr/mill cells. The cytotoxic concentration (CC50) in data set [8] is over 50000 nM. In addition, the “Stability SIF” value in data set [4] was 77%. Besides, in data set [5], the “Stability WB_Human (37° C.; 2 hr)” value is given as 83%. Moreover, the EC50 in data set [6] was 1000 to 10000 nM.
